Measurements from ChEMBL document CHEMBL1150015, “Rational design of purine nucleoside phosphorylase inhibitors: Design of 2-(2-Haloethyl) and 2-ethenyl substituted quinazolinone alkylating agents” (Bioorg Med Chem Lett, 1992).

The compounds below were run against T1, Purine nucleoside phosphorylase (Homo sapiens) (UniProt P00491) (assay: Second order rate constant for the inactivation of Purine Nucleoside Phosphorylase by compound in 0.05 M Phosphate Buffer and at a pH 7.4 (u=0.1 KCl) at 30.0 degree Centigrade).
T1 sequence (whole entry): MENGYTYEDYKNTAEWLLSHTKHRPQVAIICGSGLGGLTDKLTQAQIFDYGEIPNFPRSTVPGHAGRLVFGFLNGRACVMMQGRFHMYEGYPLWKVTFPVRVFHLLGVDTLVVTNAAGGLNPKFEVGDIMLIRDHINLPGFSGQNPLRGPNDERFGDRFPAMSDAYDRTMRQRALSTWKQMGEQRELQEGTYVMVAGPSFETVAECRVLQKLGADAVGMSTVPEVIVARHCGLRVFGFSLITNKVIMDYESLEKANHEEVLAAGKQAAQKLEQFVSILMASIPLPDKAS

k [M⁻¹ s⁻¹]	SMILES
15.9	O=C1C=CC(=O)c2c(O)nc(-c3ccccc3)nc21
4.73	Nc1nc(O)c2c(n1)C(=O)C=CC2=O

Second part, the compound before the results:

SMILES	k [M⁻¹ s⁻¹]
O=C1C=CC(=O)c2c(O)nc(CCBr)nc21	7.97
C=Cc1nc(O)c2c(n1)C(=O)C=CC2=O	3.1
O=C1C=CC(=O)c2c(O)ncnc21	1.62
O=C1C=CC(=O)c2c(O)nc(CBr)nc21	3.7
